Test results as given in ChEMBL document CHEMBL4837266, “Ugi Reaction Synthesis of Oxindole-Lactam Hybrids as Selective Butyrylcholinesterase Inhibitors” (ACS Med Chem Lett, 2021).
pIC50, pKi: −log10 of the molar value.

What was measured:
Acetylcholinesterase [1] = molecular target: T1, Acetylcholinesterase (Electrophorus electricus, UniProt O42275); test: Inhibition of electric eel AChE using […] as a substrate by Cornish-Bowden plot analysis
Cholinesterase [2] = molecular target: T2, Cholinesterase (Equus caballus, UniProt P81908); test: Mixed type inhibition of equine serum BuChE using S-butyrylthiocholine iodide as a substrate by Cornish-Bowden plot analysis; assay type: cell-free
T2 sequence (P81908 whole entry): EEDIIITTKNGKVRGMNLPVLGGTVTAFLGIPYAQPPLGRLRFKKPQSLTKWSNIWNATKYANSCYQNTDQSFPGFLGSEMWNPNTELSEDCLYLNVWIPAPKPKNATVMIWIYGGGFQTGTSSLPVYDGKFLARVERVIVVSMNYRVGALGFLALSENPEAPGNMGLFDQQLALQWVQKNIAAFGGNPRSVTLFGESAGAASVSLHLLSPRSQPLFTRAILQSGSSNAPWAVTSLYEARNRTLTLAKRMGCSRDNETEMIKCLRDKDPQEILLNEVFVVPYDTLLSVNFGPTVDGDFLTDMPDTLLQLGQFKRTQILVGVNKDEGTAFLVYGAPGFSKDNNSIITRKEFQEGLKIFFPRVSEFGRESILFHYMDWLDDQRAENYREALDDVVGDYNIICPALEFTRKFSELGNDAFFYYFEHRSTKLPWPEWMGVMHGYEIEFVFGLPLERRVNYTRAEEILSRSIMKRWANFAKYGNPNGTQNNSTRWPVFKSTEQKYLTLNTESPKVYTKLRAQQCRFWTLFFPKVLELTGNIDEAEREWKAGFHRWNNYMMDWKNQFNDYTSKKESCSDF

Cholinesterase [3] = molecular target: T2, Cholinesterase; test: Inhibition of equine serum BuChE using S-butyrylthiocholine iodide as a substrate measured for 125 secs by DNTB reagent based Ellman's method; assay type: cell-free
Acetylcholinesterase [4] = molecular target: T1, Acetylcholinesterase; test: Inhibition of electric eel AChE using […] as a substrate measured for 125 secs by DNTB reagent based Ellman's method
[5] = molecular target: T3, Amine oxidase [flavin-containing] A (Homo sapiens, UniProt P21397); test: Inhibition of recombinant MAO-A (unknown origin) assessed as reduction in 4-hydroxyquinoline level using kynuramine as a substrate at 1 uM incubated for 20 mins by discontinuous fluorimetric assay relative to control
T3 sequence (P21397 whole entry): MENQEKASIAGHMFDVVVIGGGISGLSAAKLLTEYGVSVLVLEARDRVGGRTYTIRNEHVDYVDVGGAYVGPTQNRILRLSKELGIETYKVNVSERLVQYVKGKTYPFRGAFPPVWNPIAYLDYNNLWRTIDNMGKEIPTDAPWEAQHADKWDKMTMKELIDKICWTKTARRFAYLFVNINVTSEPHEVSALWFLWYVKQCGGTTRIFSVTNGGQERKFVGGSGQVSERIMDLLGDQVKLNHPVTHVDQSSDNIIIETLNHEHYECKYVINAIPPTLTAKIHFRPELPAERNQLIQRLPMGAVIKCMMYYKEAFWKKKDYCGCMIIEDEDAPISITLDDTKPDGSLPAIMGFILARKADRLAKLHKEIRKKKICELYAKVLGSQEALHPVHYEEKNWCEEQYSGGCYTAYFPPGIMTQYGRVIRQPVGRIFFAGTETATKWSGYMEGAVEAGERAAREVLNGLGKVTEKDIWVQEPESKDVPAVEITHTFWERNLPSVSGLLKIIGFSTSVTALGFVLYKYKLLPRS

[6] = molecular target: T4, Amine oxidase [flavin-containing] B (Homo sapiens, UniProt P27338); test: Inhibition of recombinant MAO-B (unknown origin) assessed as reduction in 4-hydroxyquinoline level using kynuramine as a substrate at 1 uM incubated for 20 mins by discontinuous fluorimetric assay relative to control; conditions: read-out: INH
T4 sequence (P27338 whole entry): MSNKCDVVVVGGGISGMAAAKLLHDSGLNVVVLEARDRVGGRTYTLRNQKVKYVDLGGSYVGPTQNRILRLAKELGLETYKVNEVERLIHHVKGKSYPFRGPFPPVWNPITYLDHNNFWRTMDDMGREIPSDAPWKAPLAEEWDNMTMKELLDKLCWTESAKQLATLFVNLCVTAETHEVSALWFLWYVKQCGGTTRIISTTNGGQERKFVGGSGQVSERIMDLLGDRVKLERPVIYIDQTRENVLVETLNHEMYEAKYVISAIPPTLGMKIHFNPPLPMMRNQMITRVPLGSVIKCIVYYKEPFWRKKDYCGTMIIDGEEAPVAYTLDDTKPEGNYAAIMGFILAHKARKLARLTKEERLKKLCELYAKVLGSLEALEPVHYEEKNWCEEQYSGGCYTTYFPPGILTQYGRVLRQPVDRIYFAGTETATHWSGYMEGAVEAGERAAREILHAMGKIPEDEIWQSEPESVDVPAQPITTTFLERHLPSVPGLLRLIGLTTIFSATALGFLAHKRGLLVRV

T1 sequence (O42275 whole entry): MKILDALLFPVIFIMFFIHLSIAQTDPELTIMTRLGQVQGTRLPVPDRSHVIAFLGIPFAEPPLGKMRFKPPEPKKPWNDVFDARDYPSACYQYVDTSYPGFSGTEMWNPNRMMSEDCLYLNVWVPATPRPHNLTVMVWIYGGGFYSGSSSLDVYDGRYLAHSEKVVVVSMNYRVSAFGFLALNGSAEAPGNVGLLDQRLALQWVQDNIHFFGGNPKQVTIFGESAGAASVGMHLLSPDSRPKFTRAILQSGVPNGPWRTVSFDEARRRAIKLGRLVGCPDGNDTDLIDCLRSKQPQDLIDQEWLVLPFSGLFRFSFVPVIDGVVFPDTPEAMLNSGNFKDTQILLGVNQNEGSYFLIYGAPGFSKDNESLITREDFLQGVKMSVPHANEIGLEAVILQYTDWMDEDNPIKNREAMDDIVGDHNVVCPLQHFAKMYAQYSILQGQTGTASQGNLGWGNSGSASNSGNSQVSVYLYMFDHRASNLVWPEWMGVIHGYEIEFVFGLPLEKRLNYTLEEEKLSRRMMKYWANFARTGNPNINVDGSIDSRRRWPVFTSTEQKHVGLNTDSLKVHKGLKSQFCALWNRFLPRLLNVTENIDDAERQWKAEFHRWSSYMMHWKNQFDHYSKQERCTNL

Row | SMILES | pIC50 (Cholinesterase [3]) | further results
1 | CC(C)(C)CC(C)(C)NC(=O)C1(N2CCCC2=O)C(=O)Nc2ccccc21 (stereo not drawn) | 5.08 | pKi (Acetylcholinesterase [1]): 5.13; pKi (Cholinesterase [2]): 4.82; pIC50 (Acetylcholinesterase [4]): < 4.00
2 | O=C1CCCN1C1(C(=O)NC2CCCCC2)C(=O)Nc2ccccc21 (stereo not drawn) | 4.36 | 
3 | CC(C)(C)NC(=O)C1(N2CCC2=O)C(=O)N(c2ccccc2)c2ccccc21 (stereo not drawn) | 4.66 | 
4 | O=C1CCN1C1(C(=O)NCc2ccccc2)C(=O)Nc2ccccc21 (stereo not drawn) | < 4.00 | pIC50 (Acetylcholinesterase [4]): < 4.00
5 | CC(C)(C)NC(=O)C1(N2CCCC2=O)C(=O)Nc2ccccc21 (stereo not drawn) | 4.27 | 
6 | CC(C)(C)NC(=O)C1(N2CCC2=O)C(=O)N(Cc2ccccc2)c2ccccc21 (stereo not drawn) | 4.29 | 
7 | Cc1cc(C)c2c(c1)C(C(=O)NC(C)(C)C)(N1CCC1=O)C(=O)N2 (stereo not drawn) | 4.24 | 
8 | CC(C)(C)NC(=O)C1(N2CCCC2=O)C(=O)Nc2ccc(I)cc21 (stereo not drawn) | 4.17 | 
9 | CC(C)(C)NC(=O)C1(N2CCCC2=O)C(=O)N(c2ccccc2)c2ccccc21 (stereo not drawn) | 5.21 | pKi (Acetylcholinesterase [1]): 5.21; pKi (Cholinesterase [2]): 4.74
10 | CC(C)(C)NC(=O)C1(N2CCCC2=O)C(=O)Nc2ccc(Br)cc21 (stereo not drawn) | < 4.00 | 
11 | CN1C(=O)C(C(=O)NC(C)(C)C)(N2CCCC2=O)c2ccccc21 (stereo not drawn) | < 4.00 | 
12 | CC(C)(C)NC(=O)C1(N2CCC2=O)C(=O)Nc2ccc(I)cc21 (stereo not drawn) | 4.10 | 
13 | CC(C)(C)NC(=O)C1(N2CCC2=O)C(=O)Nc2c(C(F)(F)F)cccc21 (stereo not drawn) | < 4.00 | 
14 | CC(C)(C)NC(=O)C1(N2CCC2=O)C(=O)Nc2ccc([N+](=O)[O-])cc21 (stereo not drawn) | < 4.00 | 
15 | CC(C)(C)CC(C)(C)NC(=O)C1(N2CCC2=O)C(=O)N(Cc2ccccc2)c2ccccc21 (stereo not drawn) | 5.74 | pKi (Acetylcholinesterase [1]): 5.74; pKi (Cholinesterase [2]): 5.32; pIC50 (Acetylcholinesterase [4]): < 4.00
16 | CC(C)(C)NC(=O)C1(N2CCC2=O)C(=O)Nc2ccc(Br)cc21 (stereo not drawn) | < 4.00 | 
17 | Cc1cc(C)c2c(c1)C(C(=O)NC(C)(C)C)(N1CCCC1=O)C(=O)N2 (stereo not drawn) | < 4.00 | 
18 | C#CCN1C(=O)C(C(=O)NCc2ccccc2)(N2CCC2=O)c2ccccc21 (stereo not drawn) | < 4.00 | inhibition at 1 µM [5]: 8.9%; inhibition at 1 µM [6]: 7.6%
19 | C#CCN1C(=O)C(C(=O)NCc2ccccc2)(N2CCCC2=O)c2ccccc21 (stereo not drawn) | < 4.00 | inhibition at 1 µM [5]: 13.2%; inhibition at 1 µM [6]: 6.1%
20 | C#CCN1C(=O)C(C(=O)NC(C)(C)C)(N2CCC2=O)c2ccccc21 (stereo not drawn) |  | inhibition at 1 µM [5]: 5.9%; inhibition at 1 µM [6]: 7.4%
21 | O=C1CCCN1C1(C(=O)NCc2ccccc2)C(=O)Nc2ccccc21 (stereo not drawn) | 4.15 | 
22 | CC(C)(C)NC(=O)C1(N2CCC2=O)C(=O)Nc2ccccc21 (stereo not drawn) | < 4.00 | 
23 | CC(C)(C)NC(=O)C1(N2CCCC2=O)C(=O)Nc2ccc([N+](=O)[O-])cc21 (stereo not drawn) | 4.03 | pIC50 (Acetylcholinesterase [4]): 4.35
24 | CC(C)(C)CC(C)(C)NC(=O)C1(N2CCC2=O)C(=O)Nc2ccccc21 (stereo not drawn) | 4.38 | 
25 | C#CCN(C)CCCOc1ccc(Cl)cc1Cl [CLORGILINE] |  | inhibition at 1 µM [5]: 100%
26 | CN1C(=O)C(C(=O)NC(C)(C)CC(C)(C)C)(N2CCCC2=O)c2ccccc21 (stereo not drawn) | 4.74 | 
27 | C[C@H](NCc1ccc(OCc2cccc(F)c2)cc1)C(N)=O [SAFINAMIDE] |  | inhibition at 1 µM [5]: -1.6%
28 | CC(C)(C)NC(=O)C1(N2CCCC2=O)C(=O)N(Cc2ccccc2)c2ccccc21 (stereo not drawn) | 4.49 | 
